Holding throughout (test): E. coli hemG growth inhibition by herbicide, AtPPO1 variant
Assay type in all cases: cell-based
What all share (conditions): read-out: percentage growth inhibition

For test [1], the target named is T1, AtPPO1 P154Y (Arabidopsis thaliana, UniProt P55826, P154Y).
T1 construct: expressed in transfected cells; host or cells: E. coli BL21(DE3) hemG (hemG replaced by CmR), pET24a plasmid
T1 sequence (P55826 35-537 P154Y): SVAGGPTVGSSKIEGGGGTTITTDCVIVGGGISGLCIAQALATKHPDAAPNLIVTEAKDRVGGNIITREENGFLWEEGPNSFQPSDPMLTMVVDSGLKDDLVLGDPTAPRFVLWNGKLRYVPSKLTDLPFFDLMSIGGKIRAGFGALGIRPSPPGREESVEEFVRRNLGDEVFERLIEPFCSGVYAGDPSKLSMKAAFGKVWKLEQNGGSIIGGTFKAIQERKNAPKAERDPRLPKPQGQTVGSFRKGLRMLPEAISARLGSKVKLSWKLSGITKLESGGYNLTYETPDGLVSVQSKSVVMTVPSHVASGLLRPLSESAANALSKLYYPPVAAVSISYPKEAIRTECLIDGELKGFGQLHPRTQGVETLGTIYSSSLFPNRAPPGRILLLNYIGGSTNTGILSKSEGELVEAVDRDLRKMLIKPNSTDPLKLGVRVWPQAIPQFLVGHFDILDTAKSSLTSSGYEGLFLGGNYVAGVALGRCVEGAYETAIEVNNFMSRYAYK
The procedure, abridged:
(§1)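 E. coli BL21(DE3) ΔhemG::CmR complemented by AtPPO1 variants (pET24a, T7, E. coli codon-optimised); TB + 0.1 mM IPTG, 1:100 inoculum; 6.25 ppm herbicide 0/E or 0.78 ppm herbicide B vs DMSO; 24 h, 37° C, 250 rpm; OD600 at 24 h → % growth inhibition.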

In test [2] the target is T2, AtPPO1 Q272T (Arabidopsis thaliana, UniProt P55826, Q272T).
T2 construct: expressed in transfected cells; host or cells: E. coli BL21(DE3) hemG (hemG replaced by CmR), pET24a plasmid
T2 sequence (P55826 35-537 Q272T): T1 sequence (P55826 35-537 P154Y) with Y120P, Q238T
The procedure, abridged: as §1

Test [3] concerns the target T3, AtPPO1 Y361F (Arabidopsis thaliana, UniProt P55826, Y361F).
T3 construct: expressed in transfected cells; host or cells: E. coli BL21(DE3) hemG (pET24a, T7 promoter)
T3 sequence (P55826 35-537 Y361F): T1 sequence (P55826 35-537 P154Y) with Y120P, Y327F
The procedure, abridged:
as §1

Test [4] deals with T4, AtPPO1 R284G (Arabidopsis thaliana, UniProt P55826, R284G).
T4 construct: expressed in transfected cells; host or cells: E. coli BL21(DE3) hemG (pET24a, T7 promoter)
T4 sequence (P55826 35-537 R284G): T1 sequence (P55826 35-537 P154Y) with Y120P, R250G
The procedure, abridged: as §1

Molecules are shown by their SMILES. Where a chain is given by its changes, count along the chain named.

Usually inhibition stands for the percentage by which the read-out fell short of the control. Regarding `C#CCN1C(=O)C(F)(F)Oc2cc(F)c(-n3c(=O)n(C)c(=S)n(C)c3=O)cc21` [Herbicide B, trifludimoxazin], the inhibition at 0.78 ppm amounted to 34% in test [1], 28% in test [2], 31% in test [3] and 35% in test [4].
Consider `CCOC(=O)[C@]1(C)CC(c2cc(-n3c(=O)n(C)c(=S)n(C)c3=O)c(F)cc2Cl)=NO1` [Herbicide D, ethyl (5S)-3-[2-chloro-5-(3,5-dimethyl-2,6-dioxo-4-thioxo-1,3,5-triazinan-1-yl)-4-fluoro-phenyl]-5-methyl-4H-isoxazole-5-carboxylate], for which the inhibition at 6.25 ppm in test [1] was 38%; in test [2] it was 23%; in test [3], 37%; in test [4], 37%.
As for `CC(C)N(C)S(=O)(=O)NC(=O)c1cc(-n2c(=O)cc(C(F)(F)F)n(C)c2=O)c(F)cc1Cl` [Herbicide E, saflufenacil], the inhibition at 6.25 ppm in test [1] is 68%; in test [2], 64%; in test [3], 50%; in test [4], 60%.

The values above are taken from patent US20260297542A1, “HERBICIDE RESISTANT PLANTS” (SYNGENTA CROP PROTECTION AG, priority 2023, published 2026).
